Tests used:
[1] = molecular target: T1, Metabotropic glutamate receptor 2 (Homo sapiens, UniProt Q14416); experiment: Positive allosteric modulation of human mGluR2 expressed in CHO cells assessed as incorporation of [35S]GTPgammaS after 30 mins by scintillation counting analysis; assay type: functional, cell-based
Target sequence in this assay (Q14416 whole entry): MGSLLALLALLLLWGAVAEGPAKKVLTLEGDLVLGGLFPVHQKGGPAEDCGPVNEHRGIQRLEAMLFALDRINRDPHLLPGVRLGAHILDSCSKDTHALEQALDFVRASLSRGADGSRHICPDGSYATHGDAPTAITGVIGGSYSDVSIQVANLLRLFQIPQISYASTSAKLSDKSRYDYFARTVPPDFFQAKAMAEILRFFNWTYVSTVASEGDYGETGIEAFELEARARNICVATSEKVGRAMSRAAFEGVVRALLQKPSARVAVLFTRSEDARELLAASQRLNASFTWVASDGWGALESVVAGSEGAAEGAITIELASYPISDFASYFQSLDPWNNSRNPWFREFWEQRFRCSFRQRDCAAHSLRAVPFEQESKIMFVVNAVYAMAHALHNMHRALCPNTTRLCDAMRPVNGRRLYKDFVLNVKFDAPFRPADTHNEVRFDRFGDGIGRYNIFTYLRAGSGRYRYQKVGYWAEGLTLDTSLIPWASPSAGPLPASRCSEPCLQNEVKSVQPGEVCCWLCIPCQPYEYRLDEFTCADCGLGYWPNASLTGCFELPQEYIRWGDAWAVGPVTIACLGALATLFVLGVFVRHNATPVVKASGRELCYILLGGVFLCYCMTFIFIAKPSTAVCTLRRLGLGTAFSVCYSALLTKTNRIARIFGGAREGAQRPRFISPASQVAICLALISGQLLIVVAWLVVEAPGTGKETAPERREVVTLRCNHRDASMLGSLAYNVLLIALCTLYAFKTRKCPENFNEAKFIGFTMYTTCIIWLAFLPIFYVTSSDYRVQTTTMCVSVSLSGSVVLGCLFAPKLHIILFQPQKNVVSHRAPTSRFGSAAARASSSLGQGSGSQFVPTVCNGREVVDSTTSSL

[2] = molecular target: T1, Metabotropic glutamate receptor 2; experiment: Positive allosteric modulation of human mGluR2 expressed in CHO cells assessed as incorporation of [35S]GTPgammaS at 0.3 nM to 50 uM after 30 mins by scintillation counting analysis relative to control; assay type: functional, cell-based
Target sequence in this assay (Q14416 19-872 limits assumed): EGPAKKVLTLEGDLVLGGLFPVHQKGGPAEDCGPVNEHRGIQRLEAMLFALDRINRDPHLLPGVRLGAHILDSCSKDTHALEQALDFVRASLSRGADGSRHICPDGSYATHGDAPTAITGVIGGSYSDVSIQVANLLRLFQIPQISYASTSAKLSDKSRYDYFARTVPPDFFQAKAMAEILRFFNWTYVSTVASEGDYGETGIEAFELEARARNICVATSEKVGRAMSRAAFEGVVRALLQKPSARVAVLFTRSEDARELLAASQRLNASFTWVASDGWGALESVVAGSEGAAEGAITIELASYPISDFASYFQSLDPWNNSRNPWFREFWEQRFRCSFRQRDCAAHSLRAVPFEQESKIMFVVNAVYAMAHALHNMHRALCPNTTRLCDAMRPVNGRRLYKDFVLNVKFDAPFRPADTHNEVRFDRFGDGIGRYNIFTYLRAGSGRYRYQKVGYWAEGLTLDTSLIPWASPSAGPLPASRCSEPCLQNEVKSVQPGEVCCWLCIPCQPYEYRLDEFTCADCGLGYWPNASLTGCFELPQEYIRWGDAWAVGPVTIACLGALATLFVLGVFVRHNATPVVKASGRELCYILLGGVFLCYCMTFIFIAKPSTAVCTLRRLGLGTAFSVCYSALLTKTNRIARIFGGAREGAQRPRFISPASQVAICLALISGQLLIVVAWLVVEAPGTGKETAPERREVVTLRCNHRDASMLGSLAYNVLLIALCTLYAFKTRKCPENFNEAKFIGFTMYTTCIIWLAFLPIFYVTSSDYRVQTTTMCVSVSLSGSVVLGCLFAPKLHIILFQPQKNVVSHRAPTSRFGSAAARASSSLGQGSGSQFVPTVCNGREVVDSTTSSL

[3] = Drug metabolism in human liver microsomes at 5 uM after 15 mins; assay type: ADME; conditions: read-out: Drug metabolism
[4] = molecular target: T1, Metabotropic glutamate receptor 2; experiment: Positive allosteric modulation of mGluR2 (unknown origin) by FLIPR assay
Target sequence in this assay (Q14416 whole entry): as the sequence (Q14416 whole entry) above

[5] = molecular target: T1, Metabotropic glutamate receptor 2; experiment: Potentiation of human mGluR2 expressed in CHO cells assessed as fold shift in glutamate concentration response curve at 3 uM relative to control; assay type: cell-based
Target sequence in this assay (Q14416 19-872 limits assumed): as the sequence (Q14416 19-872 limits assumed) above

Row | Structure (SMILES) | EC50 [1] [nM] | Emax [2] [%] | metabolised at 0.25 h, 5 µM [3] [%] | EC50 [4] [nM] | fold change (FC) [5]
1 | CCCn1ccc2c(N(C)CCc3ccc(OC)cc3)cccc2c1=O | 398 | 93 |  |  | 
2 | CCCn1ccc2c(NCc3ccccc3)cccc2c1=O | 2000 | 80 | 38 |  | 
3 | CCCn1ccc2c(NCc3cccc(OC(F)(F)F)c3)cccc2c1=O | 200 | 162 | 34 |  | 
4 | CCCn1ccc2c(NCCc3cccc(OC)c3)cccc2c1=O | 251 | 110 |  |  | 
5 | CCCn1ccc2c(NCCc3ccc(C)cc3)cccc2c1=O | 200 | 134 |  |  | 
6 | CCCn1ccc2c(NCc3cccc(Oc4ccccc4)c3)cccc2c1=O | 1260 | 65 |  |  | 
7 | CCCn1ccc2c(NCCCc3ccccc3)cccc2c1=O | 158 | 112 | 57 |  | 
8 | CCCn1ccc2c(NCc3cccc(OC)c3)cccc2c1=O | 316 | 129 |  |  | 
9 | CCCn1ccc2c(NCCc3ccccc3)cccc2c1=O | 501 | 123 | 52 | 158 | 
10 | CCCn1ccc2c(OCCc3ccc(OC)cc3)cccc2c1=O | 251 | 123 |  |  | 
11 | CCCn1ccc2c(NCCc3ccccc3)ccc(Cl)c2c1=O | 251 | 68 |  |  | 
12 | CCCn1ccc2c(NCc3ccccc3Cl)cccc2c1=O | 200 | 163 | 26 |  | 6.6
13 | CCCn1ccc2c(NCCc3ccccc3OC)cccc2c1=O | 126 | 137 | 91 |  | 
14 | CCCn1ccc2c(NCCc3ccc(OC)cc3)cccc2c1=O | 251 | 92 | 97 |  | 
15 | CCCn1ccc2c(NCc3ccc(OC)cc3)cccc2c1=O | 501 | 81 |  |  | 

— ChEMBL document CHEMBL3217606, “New positive allosteric modulators of the metabotropic glutamate receptor 2 (mGluR2). Identification and synthesis of N-propyl-5-substituted isoquinolones” (Medchemcomm, 2011)
